Values of other authors, collected in patent US20070258969A1, “Compositions and methods for targeting metastatic tumors using multivalent ligand-linked carbohydrate polymers” (priority 2004, published 2007).

How the values were obtained:
[1] = system: B16 melanoma cells; conditions: in vivo
[2] = system: L-1 sarcoma cells; conditions: in vivo

Compound | metastasis of B16 melanoma cells [1] | liver metastasis of L-1 sarcoma cells [2]
CO[C@H]1O[C@H](CO)[C@@H](O[C@@H]2O[C@H](CO)[C@H](O)[C@H](O)[C@H]2O)[C@H](O)[C@H]1O [methyl-α-D-lactoside] | inhibit metastasis | 
arabinogalactose |  | inhibited liver metastasis
O=C[C@H](O)[C@@H](O)[C@@H](O)[C@H](O)CO [D-galactose] |  | inhibited liver metastasis
CC(=O)N[C@H]1[C@H](O[C@H]2[C@@H](O)[C@@H](CO)O[C@@H](O[C@H]3[C@H](O)[C@@H](O)C(O)O[C@@H]3CO)[C@@H]2O)O[C@H](CO)[C@@H](O)[C@@H]1O[C@@H]1O[C@H](CO)[C@H](O)[C@H](O)[C@H]1O (stereo partly shown) [lacto-N-tetrose] | inhibit metastasis | 
